# From ChEMBL document CHEMBL1201862, “PubChem BioAssay data set” (2004)
# Activity calls are given as the source filed them.
# Tests used:
# Nonstructural protein 1 = Nonstructural protein 1 (Influenza A virus, UniProt Q194T2); assay type: functional, Influenza A virus (A/California/07/2009(H1N1))
# [1] = target: T1, Carboxy-terminal domain RNA polymerase II polypeptide A small phosphatase 1 (Homo sapiens, UniProt Q9GZU7); experiment: CTDSP1 inhibitors, concentration-response, biochemical, absorbance readout, ultra-high-throughput screen actives (AID 540297); assay type: functional
# T1 sequence (Q9GZU7 whole entry): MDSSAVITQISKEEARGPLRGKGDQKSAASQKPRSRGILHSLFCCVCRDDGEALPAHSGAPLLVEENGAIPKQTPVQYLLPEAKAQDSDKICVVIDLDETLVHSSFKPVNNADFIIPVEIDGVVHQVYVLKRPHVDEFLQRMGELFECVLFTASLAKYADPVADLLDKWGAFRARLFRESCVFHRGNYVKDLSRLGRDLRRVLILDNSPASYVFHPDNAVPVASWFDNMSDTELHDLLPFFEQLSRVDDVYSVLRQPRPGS
# [2] = target: T2, Heat shock factor protein 1 (Mus musculus, UniProt P38532); experiment: enhancement of HSF1-driven luciferase signal – cell-based, NIH3T3, luminescence, dose retest, confirmation (AID 435004); assay type: functional;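 further: stress induced by proteasome inhibitor MG132 added 30 min after compound; luciferase reporter driven by HSF1 response element in NIH3T3 cells; actives raise luminescence as potentiators of the MG132 stress response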
# T2 sequence (P38532 whole entry): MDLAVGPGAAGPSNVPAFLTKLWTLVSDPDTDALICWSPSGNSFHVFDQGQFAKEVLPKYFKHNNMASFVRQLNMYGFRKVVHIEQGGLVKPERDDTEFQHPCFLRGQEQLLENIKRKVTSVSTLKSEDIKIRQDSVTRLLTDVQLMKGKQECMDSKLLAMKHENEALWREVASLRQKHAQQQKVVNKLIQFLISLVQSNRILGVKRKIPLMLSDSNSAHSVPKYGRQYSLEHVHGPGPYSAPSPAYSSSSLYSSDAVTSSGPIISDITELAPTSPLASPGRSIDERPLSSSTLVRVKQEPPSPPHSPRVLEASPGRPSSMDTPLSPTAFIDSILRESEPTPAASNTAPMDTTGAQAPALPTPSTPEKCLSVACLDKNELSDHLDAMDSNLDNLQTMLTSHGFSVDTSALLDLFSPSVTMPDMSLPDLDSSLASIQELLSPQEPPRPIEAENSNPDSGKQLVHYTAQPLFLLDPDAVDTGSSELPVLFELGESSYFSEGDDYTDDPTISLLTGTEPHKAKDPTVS
# [3] = target: Glucose-6-phosphate 1-dehydrogenase (Homo sapiens, UniProt P11413); experiment: inhibition of Homo sapiens G6PD, dose series – biochemical, fluorescence, selectivity assay for P. falciparum G6PD inhibitor project, dose response (AID 504792); assay type: functional
# Chain of Glucose-6-phosphate 1-dehydrogenase (P11413 whole entry): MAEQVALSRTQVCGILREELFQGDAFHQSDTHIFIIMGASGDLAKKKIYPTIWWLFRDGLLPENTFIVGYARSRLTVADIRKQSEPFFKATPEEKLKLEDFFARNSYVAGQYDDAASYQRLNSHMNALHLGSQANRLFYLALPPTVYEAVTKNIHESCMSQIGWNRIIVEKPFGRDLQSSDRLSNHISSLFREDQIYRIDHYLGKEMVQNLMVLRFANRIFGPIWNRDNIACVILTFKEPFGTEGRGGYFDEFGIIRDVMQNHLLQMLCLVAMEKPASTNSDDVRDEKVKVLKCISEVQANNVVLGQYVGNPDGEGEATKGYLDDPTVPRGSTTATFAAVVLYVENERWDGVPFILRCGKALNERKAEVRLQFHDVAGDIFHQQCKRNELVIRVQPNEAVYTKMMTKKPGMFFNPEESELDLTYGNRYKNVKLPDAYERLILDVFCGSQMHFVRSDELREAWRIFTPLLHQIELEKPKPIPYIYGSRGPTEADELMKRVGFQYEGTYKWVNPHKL
# [4] = HEK-293T viability loss after treatment – luminescence, T-cell screen hits, cytotoxicity control for TCR NF-kB inhibitor project, dose response (AID 489026); assay type: functional, cell-based;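 further: cells exposed to compound about 14 hours before the viability readout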
# Large T antigen = Large T antigen (Simian virus 40, UniProt P03070); assay type: functional, Betapolyomavirus macacae;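 further: Confirmatory-stage PubChem screen for compounds that inhibit SV40 T antigen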
# Chain of Large T antigen (P03070 whole entry): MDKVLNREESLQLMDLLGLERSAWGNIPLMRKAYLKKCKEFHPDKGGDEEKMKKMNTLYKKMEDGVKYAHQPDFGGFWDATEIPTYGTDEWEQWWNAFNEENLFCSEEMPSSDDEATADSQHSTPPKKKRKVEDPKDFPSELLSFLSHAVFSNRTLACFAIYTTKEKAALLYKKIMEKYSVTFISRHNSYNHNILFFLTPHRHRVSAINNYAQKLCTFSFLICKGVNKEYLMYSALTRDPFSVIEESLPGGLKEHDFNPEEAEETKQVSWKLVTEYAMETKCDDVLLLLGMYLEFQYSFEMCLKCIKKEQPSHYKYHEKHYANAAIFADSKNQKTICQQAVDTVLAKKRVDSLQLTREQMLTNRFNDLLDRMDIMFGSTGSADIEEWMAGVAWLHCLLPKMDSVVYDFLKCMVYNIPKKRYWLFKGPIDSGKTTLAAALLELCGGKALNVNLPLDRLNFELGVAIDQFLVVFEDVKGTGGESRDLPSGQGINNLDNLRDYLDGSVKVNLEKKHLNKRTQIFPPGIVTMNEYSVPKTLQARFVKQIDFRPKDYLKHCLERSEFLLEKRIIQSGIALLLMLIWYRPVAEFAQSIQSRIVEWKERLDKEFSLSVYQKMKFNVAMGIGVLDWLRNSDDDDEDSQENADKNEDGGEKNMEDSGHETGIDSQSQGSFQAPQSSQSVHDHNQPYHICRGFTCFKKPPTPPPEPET
# [5] = alpha-synuclein stem-loop luciferase translation blockers – H4 neuroglioma cells, luminescence, confirmation (AID 1988); assay type: functional, cell-based
# [6] = Luminescence Cell-Based Dose Response HTS to Identify Inhibitors of 5'UTR Stem-Loop Driven Prion Protein mRNA Translation in H4 Neuroglioblastoma Cells. [Related pubchem assays: 1827 (Project Summary), 1813 (Primary HTS)]; assay type: functional
# [7] = luciferase reporter signal suppression in cells – H4 neuroglioma cells, luminescence, dose response (AID 1990); assay type: functional, cell-based
# INS1 = experiment: INS-1E survival protection against cytokine death – cell-based, luminescence, retest, dose response (AID 449756); assay type: functional; settings: Rattus norvegicus;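 further: cell death triggered by IL-1 beta plus TNF-alpha plus IFN-gamma mixture; protective hits raise ATP signal compared with cytokine alone wells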
# Paired box protein Pax-8 = Paired box protein Pax-8 (Homo sapiens, UniProt Q06710); experiment: PAX8 transcriptional activity inhibition in RMG-I – RMG-I cells, luciferase, cherry-pick, dose response (AID 687027); assay type: functional, cell-based;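 further: luciferase reporter driven by Pax8 target thyroperoxidase promoter measured by SteadyGlo luminescence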
# Chain of Paired box protein Pax-8 (Q06710 whole entry): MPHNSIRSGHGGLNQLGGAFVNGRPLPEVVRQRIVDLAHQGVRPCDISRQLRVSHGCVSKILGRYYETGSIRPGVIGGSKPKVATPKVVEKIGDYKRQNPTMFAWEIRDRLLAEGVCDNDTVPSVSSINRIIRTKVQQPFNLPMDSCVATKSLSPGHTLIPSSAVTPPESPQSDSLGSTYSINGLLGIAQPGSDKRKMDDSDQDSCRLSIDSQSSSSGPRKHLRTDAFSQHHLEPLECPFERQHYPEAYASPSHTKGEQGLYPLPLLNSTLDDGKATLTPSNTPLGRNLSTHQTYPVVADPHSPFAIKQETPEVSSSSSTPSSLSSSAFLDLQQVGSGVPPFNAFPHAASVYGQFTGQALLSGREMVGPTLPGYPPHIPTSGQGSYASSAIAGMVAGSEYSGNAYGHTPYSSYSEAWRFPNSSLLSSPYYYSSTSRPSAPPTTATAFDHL
# [8] = microbe, parasite or virus in culture; assay type: functional; settings: Mycobacterium tuberculosis
# Chain of Nonstructural protein 1 (Q194T2 whole entry, the tested form may be a part): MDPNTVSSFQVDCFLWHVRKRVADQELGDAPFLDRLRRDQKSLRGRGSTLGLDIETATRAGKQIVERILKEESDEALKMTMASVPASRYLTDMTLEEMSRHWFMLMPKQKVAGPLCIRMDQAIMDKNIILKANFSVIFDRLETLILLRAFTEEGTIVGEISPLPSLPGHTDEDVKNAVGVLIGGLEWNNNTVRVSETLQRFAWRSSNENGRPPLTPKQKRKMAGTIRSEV
smiles,measurement,setting,value
CN1CCN(c2cc(N3CCCCCC3)c(F)cc2[N+](=O)[O-])CC1,IC50,Nonstructural protein 1,> 100 µM (active)
CN1CCN(C(=O)c2cccc(-c3cc(O)c4ncccc4c3)c2)CC1,IC50,Nonstructural protein 1,11.4 µM (active)
O=C(CCN1C(=O)/C(=C/c2ccc(Cl)cc2)SC1=S)Nc1ccc(C(=O)O)cc1,IC50,[1],2.64 µM (active)
C[C@]12CC[C@@H]3c4cc(O)c(O)cc4CC[C@H]3[C@@H]1CC[C@@H]2O,EC50,[2],4.07 µM (active)
same,IC50,[3],72.5 µM (inactive)
same,IC50,[4],> 80 µM (inactive)
same,IC50,Large T antigen,> 100 µM (active)
Cc1ccc(O)c(NC(=O)CCC2CCCCC2)c1,IC50,[4],> 80 µM (inactive)
CCCCCCCCn1c2c(c(=N)c3c1CCC3)CCCC2,EC50,[5],7.18 µM (active)
same,EC50,[6],32.4 µM (active)
same,EC50,[7],4.15 µM (active)
same,AC50,INS1,< 0.195 µM (active)
same,AC50,Paired box protein Pax-8,2.36 µM (active)
same,CC50,[8],32.7 µM (active)
same,IC50,[4],73.8 µM (inactive)
O=C(CCN1C(=O)S/C(=C\c2ccc(Cl)cc2)C1=O)Nc1ccc(C(=O)O)cc1,IC50,[1],6.17 µM (active)
CCc1ccc(OCC(=O)NNC(=O)c2ccc(NC(=O)C3CC3)cc2)cc1,IC50,[1],10.5 µM (active)
